Results published in patent US9605002B2, “5,5-heteroaromatic anti-infective compounds” (priority 2012, dated 2017).
Values after ≈ are worked out from the molar mass of the structure shown.

Columns and labels:
[1] = tested on: M. tuberculosis (Mtb) H37Rv; experiment: Microplate Alamar Blue Assay (MABA), 7H12 media, replicating Mtb; type: cell-based; conditions: Mycobacterium tuberculosis, 7H12 media (no glycerol), read-out: 7H12 media: Replicating H37Rv Mtb: MIC 90
[2] = tested on: M. tuberculosis (Mtb) H37Rv; experiment: Microplate Alamar Blue Assay (MABA), GAS media, replicating Mtb; type: cell-based, Mycobacterium tuberculosis; conditions: Mycobacterium tuberculosis; GAS (glycerol-alanine-salt) media, replicating H37Rv; read-out: GAS media: replicating H37Rv Mtb: MIC 90
[3] = tested on: VERO kidney epithelial cells; experiment: VERO toxicity assessment; conditions: Chlorocebus sabaeus, Vero, read-out: VERO: IC50

SMILES | MIC90 [1] [µM] | MIC90 [2] [µM] | IC50 [3] [µM]
CCc1nc2sc(C)cn2c1C(=O)NCc1ccc(N(C)C)cc1 [ND-020026] | < 2 | < 2 | < 32
Cc1cn2c(C(=O)NCc3cccc(N4CCCC4)c3)c(C)nc2s1 [ND-020073] | < 2 | < 2 | < 32
Cc1cn2c(C(=O)NCc3ccc(-n4cccn4)cc3)c(C)nc2s1 [ND-020064] | < 2 | < 2 | 20 to 32
Cc1cn2c(C(=O)NCc3ccc(N(C)C)cc3)c(C)nc2s1 [ND-020020] | < 2 | < 2 | < 32
CCc1nc2sc(C)cn2c1C(=O)O [ND-009745] | < 32 | < 32 | < 32
Cc1cn2c(C(=O)NCc3cccc(Oc4ccc(F)cc4)c3)c(C)nc2s1 [ND-020059] | < 2 | < 2 | 20 to 32
Cc1nc2sc(C)c(C)n2c1C(=O)NCc1ccc(C(F)(F)F)cc1 [ND-020013] | 10 to 20 (≈ 3.67 to 7.35 µg/mL) | 2 to 10 | < 32
Cc1cn2c(C(=O)NCc3ccc(N4CCOCC4)c(Cl)c3)c(C)nc2s1 [ND-020035] | < 2 | < 2 | 20 to 32
CCc1nc2sc(C)cn2c1C(=O)NCc1ccc2ccn(C)c2c1 [ND-020078] | < 2 | < 2 | < 32
Cc1cn2c(C(=O)NCc3ccc4ccn(C)c4c3)c(C)nc2s1 [ND-020077] | < 2 | < 2 | < 32
Cc1cn2c(C(=O)NCc3cc(Cl)cc(Cl)c3)c(C)nc2s1 [ND-020005] | < 2 | < 2 | < 32
Cc1cn2c(C(=O)Nc3ccc(-c4ccc(C(F)(F)F)cc4)nc3)c(C)nc2s1 [ND-020044] | 2 to 10 (≈ 0.833 to 4.16 µg/mL) | 2 to 10 | < 32
Cc1cn2c(C(=O)Nc3ccc(-c4ccc(C(F)(F)F)cc4)cc3)c(C)nc2s1 [ND-020042] | 2 to 10 (≈ 0.831 to 4.15 µg/mL) | < 2 | < 32
CCc1nc2sc(C)cn2c1C(=O)NCc1ccc(-c2ccc(C(F)(F)F)cc2)cc1 [ND-020043] | 2 to 10 (≈ 0.887 to 4.43 µg/mL) | < 2 | < 32
Cc1nc2sc(C(F)(F)F)cn2c1C(=O)NCc1ccc(N(C)C)cc1 [ND-020024] | 2 to 10 (≈ 0.765 to 3.82 µg/mL) | < 2 | < 32
Cc1nc2sc(C(F)(F)F)cn2c1C(=O)NCc1ccc(Cl)cc1 [ND-020015] | 2 to 10 (≈ 0.748 to 3.74 µg/mL) | < 2 | < 32
CCc1nc2sc(C)cn2c1C(=O)NCc1ccc2nc(-c3ccc(F)cc3)oc2c1 [ND-020067] | 2 to 10 (≈ 0.869 to 4.34 µg/mL) | < 2 | 20 to 32
CCc1nc2sc(C)cn2c1C(=O)NCc1ccc(N2CCOCC2)c(F)c1 [ND-020037] | 2 to 10 (≈ 0.805 to 4.02 µg/mL) | < 2 | < 32
CCOc1ccc(CNC(=O)c2c(C)nc3sc(C)cn23)cc1 [ND-020028] | < 2 | < 2 | < 32
Cc1cn2c(C(=O)NCc3ccccc3)c(C)nc2s1 [ND-009749] | < 2 | < 2 | < 32
CCc1nc2sc(C)cn2c1C(=O)NCc1ccc(C(F)(F)F)cc1 [ND-020010] | < 2 | < 2 | < 32
CCc1nc2sc(Cl)cn2c1C(=O)NCc1ccc(N(C)C)cc1 [ND-020023] | < 2 | < 2 | < 32
CCc1nc2sc(C)cn2c1C(=O)NCc1ccc(Oc2ccc(C(F)(F)F)cc2)cc1 [ND-020054] | < 2 | < 2 | 20 to 32
Cc1cn2c(C(=O)NCc3ccc4ocnc4c3)c(C)nc2s1 [ND-020049] | < 2 | < 2 | < 32
Cc1cn2c(C(=O)NCc3cc(F)cc(F)c3)c(C)nc2s1 [ND-020004] | < 2 | < 2 | < 32
Cc1cn2c(C(=O)NCc3ccc(Oc4ccc(Cl)cc4)cc3)c(C)nc2s1 [ND-020060] | < 2 | < 2 | 10 to 20
